Assay results: patent US7094869B2, “Low molecular weight peptidomimetic growth hormone secretagogues” (Genentech, Inc., priority 1994, dated 2006)
“Also recorded” adds a separate entry of the source.

Legend:
rat pituitary cells = rat pituitary cells (Rattus norvegicus, UniProt O08725); assay: Rat “pit” cell challenges: combinations with GHRP-6/GHRH, desensitization, somatostatin suppression, GHRP antagonist; type: cell-based
Description: Dispersion: Adult female Sprague-Dawley (160-180 g., Charles River) rats were group-caged in a 12:12 light:dark cycle with food and water available ad libitum. Pituitaries from ten rats were removed, the posterior pituitary discarded and the anterior pituitary placed in Hanks' Balanced Salt Solution (HBSS: without calcium chloride, w/o magnesium chloride, w/o magnesium sulfate; Gibco) containing 20 mM HEPES (Gibco) and 100 U/ml penicillin streptomycin (PS: JRH Biosciences). Under sterile conditions, pituitaries were rinsed twice then minced into small fragments with a razor blade. Fragments were resuspended in 5 ml of HBSS/HEPES containing 20 mg collagenase (Serva 17449) and 200 ml of 1 mg/ml DNase (Sigma) for a 40 min. incubation in a 37° C. gyrotory water bath shaker (New Brunswick Scientific Model G76; setting 10). After the incubation, fragments were triturated to yield small clumps and single cells. The cells were centrifuged 1000× g for 5 min, resuspended, counted and plated at a final cell concentration of 100,000 cells/ml. Incubation media was DME low glucose media w/NaHCO3 (Gibco) containing 20 mM hepes, 100 U/ml PS and 10% FBS (Hyclone A-111-L). Cells were plated at 0.5 ml per well in 48 well plates (Falcon) and incubated at 37° C. in 5% C02 for three days. […] The highest concentration of DMSO in media was 0.1%. Stock solutions (1 mM) of rat GHRH, somatostatin (Sigma) and GHRP antagonist HwkWfK were made fresh in media and diluted appropriately. The media used in all challenges and washing steps was DME low glucose with 20 mM Hepes, 100 U/ml PS, 10% FBS. Media was warmed to 37° C. and gassed by placing it into the incubator prior to challenge. On day three, the media was discarded and fresh media (approximately 1 ml) added for the first of three washes. After the last wash, the plate was placed back in the incubator for a 15 min pre-incubation. Then cells were washed 2× (with warmed and gassed media) and fresh 0.5 ml media were added for the second 15 min. pre-incubation. After the second pre-incubation cells were washed 2× as above and 0.5 ml of control and test solutions were added for a final 15 min incubation. After this incubation, the media were removed for subsequent GH ELISA. GH ELISA: A two-site ELISA was used to determine rat GH concentration in the media. Briefly, goat anti-rat GH antibody (lot#19164-20) was used to coat Nunc immunoplates overnight. After blocking and washing, standard (rat GH reference preparation: Parlow) and challenge media is diluted 1:20 prior to GH assay were added for a 1 hr room temperature incubation. STATISTICS: The mean for each group was determined and analyzed by one-way analysis of variance with a post-hoc Student-Newman-Keuls. Significance is defined as P<0.05. The EC50 was calculated using a 4-parameter curve-fit program (Kaleidagraph). Three to four independent EC50s were used to derive the mean and SEM.

LH = LH release from pituitary cells (RIA); type: cell-based, rat; conditions: 100 nM; listed as (inip)-bbFK-NH2
Description: (§1) Dispersion: Adult female Sprague-Dawley (160-180 g., Charles River) rats were group-caged in a 12:12 light:dark cycle with food and water available ad libitum. Pituitaries from ten rats were removed, the posterior pituitary discarded and the anterior pituitary placed in Hanks' Balanced Salt Solution (HBSS: without calcium chloride, w/o magnesium chloride, w/o magnesium sulfate; Gibco) containing 20 mM HEPES (Gibco) and 100 U/ml penicillin streptomycin (PS: JRH Biosciences). Under sterile conditions, pituitaries were rinsed twice then minced into small fragments with a razor blade. Fragments were resuspended in 5 ml of HBSS/HEPES containing 20 mg collagenase (Serva 17449) and […] of 1 mg/ml DNase (Sigma) for a 40 min. incubation in a 37° C. gyrotory water bath shaker (New Brunswick Scientific Model G76; setting 10). […] The cells were centrifuged 1000× g for 5 min, resuspended, counted and plated at a final cell concentration of 100,000 cells/ml. […] STATISTICS: The mean for each group was determined and analyzed by one-way analysis of variance with a post-hoc Student-Newman-Keuls. […] The EC50 was calculated using a 4-parameter curve-fit program (Kaleidagraph). […] RIA of pituitary hormones: LH, FSH, TSH, and Prolactin were determined with commercially available kits from Amersham, and ACTH levels were determined by a RIA kit from ICN. […]

FSH = FSH release from pituitary cells (RIA); type: cell-based, rat; conditions: 100 nM; listed as (inip)-bbFK-NH2
Description: as §1

TSH = TSH release from pituitary cells (RIA); type: cell-based, rat; conditions: 100 nM; listed as (inip)-bbFK-NH2
Description: as §1

ACTH = ACTH release from pituitary cells (RIA); type: cell-based, rat; conditions: 100 nM
Description: Dispersion: Adult female Sprague-Dawley (160-180 g., Charles River) rats were group-caged in a 12:12 light:dark cycle with food and water available ad libitum. Pituitaries from ten rats were removed, the posterior pituitary discarded and the anterior pituitary placed in Hanks' Balanced Salt Solution (HBSS: without calcium chloride, w/o magnesium chloride, w/o magnesium sulfate; Gibco) containing 20 mM HEPES (Gibco) and 100 U/ml penicillin streptomycin (PS: JRH Biosciences). Under sterile conditions, pituitaries were rinsed twice then minced into small fragments with a razor blade. Fragments were resuspended in 5 ml of HBSS/HEPES containing 20 mg collagenase (Serva 17449) and […] of 1 mg/ml DNase (Sigma) for a 40 min. incubation in a 37° C. gyrotory water bath shaker (New Brunswick Scientific Model G76; setting 10). After the incubation, fragments were triturated to yield small clumps and single cells. The cells were centrifuged 1000× g for 5 min, resuspended, counted and plated at a final cell concentration of 100,000 cells/ml. Incubation media was DME low glucose media w/NaHCO3 (Gibco) containing 20 mM hepes, 100 U/ml PS and 10% FBS (Hyclone A-111-L). Cells were plated at 0.5 ml per well in 48 well plates (Falcon) and incubated at 37° C. in 5% C02 for three days. For challenges to determine release of other pituitary hormones cells were plated at 200,000 cells per ml with 2 ml per well of a Swell plate (Corning). Challenge: A (inip)bbFK-NH2 stock (or other GHRP) concentration of 1 mM was made in DMSO and diluted with warmed media approximately 30 min prior to use. The highest concentration of DMSO in media was 0.1%. […] STATISTICS: The mean for each group was determined and analyzed by one-way analysis of variance with a post-hoc Student-Newman-Keuls. […] The EC50 was calculated using a 4-parameter curve-fit program (Kaleidagraph). […] RIA of pituitary hormones: LH, FSH, TSH, and Prolactin were determined with commercially available kits from Amersham, and ACTH levels were determined by a RIA kit from ICN. […]

[1] = Combination GHRP and IGF-1 treatment of obese Zucker Diabetic Fatty (ZDF) rats; type: in vivo, rat
Description: Ten lean ZDF rats served as an additional control group.
This GHRP was given by sc. injection twice daily, each dose of 100 μl therefore containing 50 μg/injection or 100 μg/day.
Recombinant human IGF-1 (rhIGF-1) at 13.8 mg/ml in acetate buffer was loaded into osmotic minipumps (Alza, Palo Alto, model 2ML4, pump rate 2.29 μl/hr for 28 days, fill volume 2064 μl). Other pumps were filled with acetate buffer. […] The delivered dose of rhIGF-1 was therefore 758 μg/day. Recombinant human growth hormone (rhGH, Lot R9092AX, Genentech Inc.) was diluted in sterile water to 2.5 g/l and a 100 μl injection given twice daily (250 μg/injection, or 500 μg/day).
The next day the osmotic pumps were inserted into rats. […] All rats not receiving rhIGF-1 containing pumps were implanted with pumps delivering the acetate buffer excipient.
On day 24 blood was withdrawn after a 4 hour fast and 1.5 U/kg of regular insulin was injected i.p. and a second blood sample taken 30 minutes later. The rats were then sacrificed using carbon dioxide, bled from the heart, and organs taken. Serum glucose was measured by standard automated procedures.
Data are presented as mean±standard error (SE) of the mean with 8 rats per group.

Chain of rat pituitary cells (O08725 whole entry): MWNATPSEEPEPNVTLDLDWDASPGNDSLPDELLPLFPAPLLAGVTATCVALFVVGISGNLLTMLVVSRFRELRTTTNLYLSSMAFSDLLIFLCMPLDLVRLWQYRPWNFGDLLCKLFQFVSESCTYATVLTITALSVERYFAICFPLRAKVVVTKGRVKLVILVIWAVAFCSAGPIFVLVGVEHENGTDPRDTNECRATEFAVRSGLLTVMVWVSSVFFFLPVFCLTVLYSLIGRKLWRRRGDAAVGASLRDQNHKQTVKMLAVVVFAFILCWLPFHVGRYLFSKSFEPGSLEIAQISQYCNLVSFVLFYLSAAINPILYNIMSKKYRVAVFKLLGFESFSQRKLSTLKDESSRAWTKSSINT

Q: With `NCCCC[C@H](NC(=O)[C@H](Cc1ccccc1)NC(=O)[C@@H](Cc1ccc2ccccc2c1)NC(=O)[C@@H](Cc1ccc2ccccc2c1)NC(=O)C1CCNCC1)C(N)=O` [(inip) b b F K amide, (inip)-DβNal-DβNal-Phe-Lys-amide] as the molecule, how does the “increase in GH levels over control” value (rat pituitary cells; 100 nM) read?
A: Its value is 3 fold.

Q: What about the “GH release in combination with GHRH” value (rat pituitary cells; GHRP 100 nM plus GHRH 10 or 100 nM, listed as (inip)-bbFK-NH2) of the same molecule?
A: The value was “show synergy with 10 nM GHRH; also recorded: showed synergy with GHRH”.

Q: And the “GH release in combination with GHRP-6” value (rat pituitary cells; both at 100 nM, listed as (inip)-bbFK-NH2)?
A: The value was “no additional or synergistic increase was observed; also recorded: no additional increase was observed”.

Q: What about the “GH release in the presence of 20 nM somatostatin” value (rat pituitary cells; coincubation with 20 nM somatostatin, listed as (inip)-bbFK-NH2) of the same molecule?
A: Its value is “suppressed this enhanced release”.

Q: What about the “GH release after sequential 15 min incubations with fresh compound (desensitization)” value (rat pituitary cells; three sequential 15 min incubations, 100 nM) of the same molecule?
A: Its value is “no significant GH release compared to control”.

Q: And the LH release (LH)?
A: The LH release was “had no effect on these hormone concentrations; also recorded: unchanged”.

Q: And the FSH release (FSH)?
A: The FSH release was “had no effect on these hormone concentrations; also recorded: unchanged”.

Q: What about the TSH release (TSH) of the same molecule?
A: The TSH release was “had no effect on these hormone concentrations; also recorded: unchanged”.

Q: What about the ACTH release (ACTH; listed as (inip)-bbFK-NH2) of the same molecule?
A: Its ACTH release is “unchanged”.

Q: And the ACTH release (ACTH; listed as (inip)bbFK-NH2)?
A: The ACTH release was “no significant change”.

Q: And the body weight gain ([1]; Day 2, obese ZDF male rats, GHRP 100 μg/d sc injection, rhIGF-1 758 μg/d pump, rhGH 500 μg/d)?
A: The body weight gain was 18.3 ± 1.0 g.

Q: And the “effect on insulin sensitivity (diabetogenic effect)” value ([1]; rat, in vivo)?
A: Its value is “greatly reduced effect on insulin sensitivity (diabetogenic effect) than rhGH”.

Q: What about the fasting blood glucose ([1]; rat, in vivo) of the same molecule?
A: Its fasting blood glucose is 386±63 mg %.

Q: What about the serum insulin ([1]; rat, in vivo) of the same molecule?
A: Its serum insulin is 39 ± 6 ng/mL.
